Tests used:
Test in all cases: KINOMEscan competition binding
Conditions in all cases: compound 10.0 µM
CDK13 (human) = CDK13 (human) (UniProt Q14004)
CDK19 (human) = CDK19 (human) (UniProt Q9BWU1)
CDK8 (human) = CDK8 (human) (UniProt P49336)
CHEK2 (human) = CHEK2 (human) (UniProt O96017)
CLK2 (human) = CLK2 (human) (UniProt P49760)
CRK2 (P.falciparum) = CRK2 (P.falciparum) (UniProt P61075)
DSTYK (human) = DSTYK (human) (UniProt Q6XUX3)
FGR (human) = FGR (human) (UniProt P09769)
HIPK2 (human) = HIPK2 (human) (UniProt Q9H2X6)
IRAK1 (human) = IRAK1 (human) (UniProt P51617)
IRAK4 (human) = IRAK4 (human) (UniProt Q9NWZ3)
[1] = test system: KIT (human), P10721 [V559D/V654A]
LCK (human) = LCK (human) (UniProt P06239)
MAP2K3 (human) = MAP2K3 (human) (UniProt P46734)
MAP3K15 (human) = MAP3K15 (human) (UniProt Q6ZN16)
MAPK9 (human) = MAPK9 (human) (UniProt P45984)
MET (human) = MET (human) (UniProt P08581)
MYLK4 (human) = MYLK4 (human) (UniProt Q86YV6)
NEK3 (human) = NEK3 (human) (UniProt P51956)
PDGFRA (human) = PDGFRA (human) (UniProt P16234)
PDPK1 (human) = PDPK1 (human) (UniProt O15530)
PKN2 (human) = PKN2 (human) (UniProt Q16513)
RAF1 (human) = RAF1 (human) (UniProt P04049)
[2] = test system: RET (human), P07949 [V804M]
RIPK2 (human) = RIPK2 (human) (UniProt O43353)
ROCK2 (human) = ROCK2 (human) (UniProt O75116)
RPS6KA3 KD1 (human) = RPS6KA3 KD1 (human) (UniProt P51812)
RPS6KA5 KD2 (human) = RPS6KA5 KD2 (human) (UniProt O75582)
SNRK (human) = SNRK (human) (UniProt Q9NRH2)
SRMS (human) = SRMS (human) (UniProt Q9H3Y6)
SRPK2 (human) = SRPK2 (human) (UniProt P78362)
SRPK3 (human) = SRPK3 (human) (UniProt Q9UPE1)
STK3 (human) = STK3 (human) (UniProt Q13188)
STK38L (human) = STK38L (human) (UniProt Q9Y2H1)
TGFBR2 (human) = TGFBR2 (human) (UniProt P37173)
ULK1 (human) = ULK1 (human) (UniProt O75385)
WEE1 (human) = WEE1 (human) (UniProt P30291)
YSK4 (human) = YSK4 (human) (UniProt Q56UN5)
STK25 (human) = STK25 (human) (UniProt O00506)
[3] = test system: EGFR (human), P00533 [T790M/L858R]

Chain of DSTYK (human) (Q6XUX3 whole entry, looked up): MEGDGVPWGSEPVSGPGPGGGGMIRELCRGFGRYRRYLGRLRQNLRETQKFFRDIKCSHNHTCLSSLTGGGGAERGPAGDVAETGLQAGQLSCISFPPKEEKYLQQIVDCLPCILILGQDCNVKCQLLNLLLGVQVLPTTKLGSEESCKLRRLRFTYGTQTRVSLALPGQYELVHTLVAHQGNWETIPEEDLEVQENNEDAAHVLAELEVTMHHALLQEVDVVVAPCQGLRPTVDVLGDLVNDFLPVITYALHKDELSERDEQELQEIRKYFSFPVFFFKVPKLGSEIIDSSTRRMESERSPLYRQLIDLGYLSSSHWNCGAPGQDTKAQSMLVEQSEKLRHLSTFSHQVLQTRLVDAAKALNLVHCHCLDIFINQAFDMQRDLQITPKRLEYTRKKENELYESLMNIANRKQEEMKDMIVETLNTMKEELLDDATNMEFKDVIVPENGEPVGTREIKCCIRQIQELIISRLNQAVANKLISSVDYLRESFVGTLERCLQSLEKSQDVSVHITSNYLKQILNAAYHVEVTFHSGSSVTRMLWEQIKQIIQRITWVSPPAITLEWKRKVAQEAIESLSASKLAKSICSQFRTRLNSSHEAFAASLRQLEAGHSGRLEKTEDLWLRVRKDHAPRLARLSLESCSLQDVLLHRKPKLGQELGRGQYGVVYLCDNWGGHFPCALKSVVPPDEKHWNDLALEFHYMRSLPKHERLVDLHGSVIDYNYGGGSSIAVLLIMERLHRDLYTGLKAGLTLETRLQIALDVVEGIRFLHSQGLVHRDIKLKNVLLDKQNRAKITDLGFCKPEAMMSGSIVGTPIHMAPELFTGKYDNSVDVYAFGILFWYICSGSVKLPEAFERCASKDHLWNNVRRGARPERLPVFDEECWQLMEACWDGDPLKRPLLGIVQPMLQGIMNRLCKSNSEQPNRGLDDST
Chain of RIPK2 (human) (O43353 whole entry, looked up): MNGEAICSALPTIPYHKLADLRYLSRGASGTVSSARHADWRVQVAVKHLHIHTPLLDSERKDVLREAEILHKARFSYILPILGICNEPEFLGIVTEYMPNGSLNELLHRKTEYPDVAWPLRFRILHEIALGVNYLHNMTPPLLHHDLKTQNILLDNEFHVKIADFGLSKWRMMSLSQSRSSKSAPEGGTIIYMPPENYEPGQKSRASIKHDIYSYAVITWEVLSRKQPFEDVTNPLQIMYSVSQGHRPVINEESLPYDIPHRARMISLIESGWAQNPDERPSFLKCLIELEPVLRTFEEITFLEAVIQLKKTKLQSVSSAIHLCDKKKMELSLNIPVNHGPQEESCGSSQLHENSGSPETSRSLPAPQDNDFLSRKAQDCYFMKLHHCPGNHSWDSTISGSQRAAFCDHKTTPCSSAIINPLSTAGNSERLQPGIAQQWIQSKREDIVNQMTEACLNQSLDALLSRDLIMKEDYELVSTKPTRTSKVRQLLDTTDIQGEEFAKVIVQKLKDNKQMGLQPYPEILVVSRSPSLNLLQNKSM
Chain of ULK1 (human) (O75385 whole entry, looked up): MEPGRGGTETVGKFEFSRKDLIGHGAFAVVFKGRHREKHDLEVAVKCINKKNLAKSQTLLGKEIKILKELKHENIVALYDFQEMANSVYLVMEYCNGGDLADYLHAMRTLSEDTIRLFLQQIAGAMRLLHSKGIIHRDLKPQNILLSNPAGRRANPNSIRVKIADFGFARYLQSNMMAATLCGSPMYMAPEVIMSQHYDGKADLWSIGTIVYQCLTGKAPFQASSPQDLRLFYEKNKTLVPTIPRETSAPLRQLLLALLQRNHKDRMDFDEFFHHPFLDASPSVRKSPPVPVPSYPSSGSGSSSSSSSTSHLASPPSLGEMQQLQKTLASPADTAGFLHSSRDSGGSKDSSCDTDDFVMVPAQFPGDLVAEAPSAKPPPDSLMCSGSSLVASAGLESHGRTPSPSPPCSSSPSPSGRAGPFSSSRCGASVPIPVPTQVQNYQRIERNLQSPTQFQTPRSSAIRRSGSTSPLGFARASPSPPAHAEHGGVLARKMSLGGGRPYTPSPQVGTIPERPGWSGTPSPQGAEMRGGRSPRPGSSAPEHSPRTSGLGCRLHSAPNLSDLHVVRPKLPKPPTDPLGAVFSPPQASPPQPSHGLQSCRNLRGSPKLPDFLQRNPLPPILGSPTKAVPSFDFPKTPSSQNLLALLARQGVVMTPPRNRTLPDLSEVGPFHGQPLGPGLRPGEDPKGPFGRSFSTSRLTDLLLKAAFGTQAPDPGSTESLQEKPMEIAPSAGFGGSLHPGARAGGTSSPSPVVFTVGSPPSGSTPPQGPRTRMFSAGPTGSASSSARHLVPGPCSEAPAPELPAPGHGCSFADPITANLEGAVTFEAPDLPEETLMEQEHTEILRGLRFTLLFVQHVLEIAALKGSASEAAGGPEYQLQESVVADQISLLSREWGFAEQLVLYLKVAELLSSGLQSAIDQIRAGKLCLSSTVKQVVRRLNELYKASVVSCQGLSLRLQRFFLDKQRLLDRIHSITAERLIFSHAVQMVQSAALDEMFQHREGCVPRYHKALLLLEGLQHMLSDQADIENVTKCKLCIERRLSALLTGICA
Chain of IRAK4 (human) (Q9NWZ3 whole entry, looked up): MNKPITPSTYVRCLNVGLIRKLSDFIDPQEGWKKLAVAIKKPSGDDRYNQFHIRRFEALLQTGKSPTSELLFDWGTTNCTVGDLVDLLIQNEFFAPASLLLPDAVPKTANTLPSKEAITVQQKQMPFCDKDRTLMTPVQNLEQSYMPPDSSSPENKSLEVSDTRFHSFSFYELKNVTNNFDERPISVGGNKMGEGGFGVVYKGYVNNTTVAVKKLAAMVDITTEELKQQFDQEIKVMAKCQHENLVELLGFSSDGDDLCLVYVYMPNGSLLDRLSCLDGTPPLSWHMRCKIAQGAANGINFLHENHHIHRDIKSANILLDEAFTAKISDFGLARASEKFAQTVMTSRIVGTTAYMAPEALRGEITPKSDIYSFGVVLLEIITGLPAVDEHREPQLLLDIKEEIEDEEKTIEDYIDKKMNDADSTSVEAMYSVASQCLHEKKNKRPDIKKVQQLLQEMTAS
Chain of MAPK9 (human) (P45984 whole entry, looked up): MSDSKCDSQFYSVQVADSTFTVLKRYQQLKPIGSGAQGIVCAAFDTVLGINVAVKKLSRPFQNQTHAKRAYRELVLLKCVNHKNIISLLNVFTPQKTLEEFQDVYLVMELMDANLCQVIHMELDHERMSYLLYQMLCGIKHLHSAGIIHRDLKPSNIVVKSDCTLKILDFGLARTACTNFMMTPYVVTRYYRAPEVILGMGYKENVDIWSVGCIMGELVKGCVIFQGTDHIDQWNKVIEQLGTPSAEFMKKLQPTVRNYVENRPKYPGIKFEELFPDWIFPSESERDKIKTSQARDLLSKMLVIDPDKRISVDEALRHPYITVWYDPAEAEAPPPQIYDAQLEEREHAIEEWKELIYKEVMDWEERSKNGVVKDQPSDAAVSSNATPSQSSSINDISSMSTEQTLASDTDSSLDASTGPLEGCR
Chain of MAP2K3 (human) (P46734 whole entry, looked up): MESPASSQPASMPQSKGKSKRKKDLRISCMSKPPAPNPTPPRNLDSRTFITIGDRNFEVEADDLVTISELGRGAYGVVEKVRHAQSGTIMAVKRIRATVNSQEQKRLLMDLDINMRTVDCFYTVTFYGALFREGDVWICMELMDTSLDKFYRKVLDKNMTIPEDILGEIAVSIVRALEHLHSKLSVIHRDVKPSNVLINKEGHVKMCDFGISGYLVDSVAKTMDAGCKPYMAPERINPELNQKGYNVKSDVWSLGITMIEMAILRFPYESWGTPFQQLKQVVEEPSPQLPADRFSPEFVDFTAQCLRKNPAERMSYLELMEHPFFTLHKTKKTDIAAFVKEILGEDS
Chain of SRMS (human) (Q9H3Y6 whole entry, looked up): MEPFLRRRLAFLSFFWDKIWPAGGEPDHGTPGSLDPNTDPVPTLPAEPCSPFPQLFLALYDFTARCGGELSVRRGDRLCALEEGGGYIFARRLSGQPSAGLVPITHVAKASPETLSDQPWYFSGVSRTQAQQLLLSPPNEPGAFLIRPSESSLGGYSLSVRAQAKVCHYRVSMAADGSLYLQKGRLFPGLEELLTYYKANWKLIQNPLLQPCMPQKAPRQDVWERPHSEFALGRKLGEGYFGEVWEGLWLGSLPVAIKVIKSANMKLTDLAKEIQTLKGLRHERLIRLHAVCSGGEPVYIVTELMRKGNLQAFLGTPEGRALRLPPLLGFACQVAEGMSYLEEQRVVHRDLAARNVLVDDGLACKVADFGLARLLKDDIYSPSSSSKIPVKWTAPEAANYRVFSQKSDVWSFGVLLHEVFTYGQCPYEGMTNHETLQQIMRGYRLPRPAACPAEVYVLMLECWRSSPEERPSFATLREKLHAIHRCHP
Chain of STK38L (human) (Q9Y2H1 whole entry, looked up): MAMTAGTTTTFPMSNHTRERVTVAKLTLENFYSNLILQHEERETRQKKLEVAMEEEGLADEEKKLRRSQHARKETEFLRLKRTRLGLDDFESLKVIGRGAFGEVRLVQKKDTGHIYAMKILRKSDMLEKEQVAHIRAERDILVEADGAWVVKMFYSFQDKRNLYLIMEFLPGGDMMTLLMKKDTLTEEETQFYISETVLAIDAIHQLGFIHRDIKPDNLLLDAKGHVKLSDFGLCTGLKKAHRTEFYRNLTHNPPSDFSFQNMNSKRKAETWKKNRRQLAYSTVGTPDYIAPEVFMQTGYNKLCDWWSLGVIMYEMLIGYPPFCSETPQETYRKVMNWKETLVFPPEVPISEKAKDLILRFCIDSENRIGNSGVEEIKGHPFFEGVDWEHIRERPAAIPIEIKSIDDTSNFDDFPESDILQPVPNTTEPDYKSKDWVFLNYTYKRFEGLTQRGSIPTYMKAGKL
Chain of CRK2 (P.falciparum) (P61075 whole entry, looked up): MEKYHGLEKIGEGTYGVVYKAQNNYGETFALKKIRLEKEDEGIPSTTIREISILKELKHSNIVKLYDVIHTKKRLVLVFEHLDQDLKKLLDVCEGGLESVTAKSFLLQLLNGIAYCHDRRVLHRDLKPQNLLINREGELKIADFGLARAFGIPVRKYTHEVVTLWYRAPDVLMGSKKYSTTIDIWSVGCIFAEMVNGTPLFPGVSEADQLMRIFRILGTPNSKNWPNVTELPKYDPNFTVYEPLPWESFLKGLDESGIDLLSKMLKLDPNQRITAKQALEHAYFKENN

Compound	kinase still bound, per cent of control (CDK13 (human))	kinase still bound, per cent of control (CDK19 (human))	kinase still bound, per cent of control (CDK8 (human))	kinase still bound, per cent of control (CHEK2 (human))	kinase still bound, per cent of control (CLK2 (human))	kinase still bound, per cent of control (CRK2 (P.falciparum))	kinase still bound, per cent of control (DSTYK (human))	kinase still bound, per cent of control (FGR (human))	kinase still bound, per cent of control (HIPK2 (human))	kinase still bound, per cent of control (IRAK1 (human))	kinase still bound, per cent of control (IRAK4 (human))	kinase still bound, per cent of control (LCK (human))	kinase still bound, per cent of control (MAP2K3 (human))	kinase still bound, per cent of control (MAP3K15 (human))	kinase still bound, per cent of control (MAPK9 (human))	kinase still bound, per cent of control (MYLK4 (human))	kinase still bound, per cent of control (NEK3 (human))	kinase still bound, per cent of control (PDPK1 (human))	kinase still bound, per cent of control (PKN2 (human))	kinase still bound, per cent of control (RAF1 (human))	other results
COc1cc2ncn(-c3cc(OCc4ccccc4C(F)(F)F)c(C(N)=O)s3)c2cc1OC	76%	100%	94%	100%	47%	93%	88%	63%	89%	54%	58%	34%	78%	63%	78%	17%	100%	66%	39%	87%	kinase still bound, per cent of control [1]: 100%; kinase still bound, per cent of control (MET (human)): 15%; kinase still bound, per cent of control (PDGFRA (human)): 58%; kinase still bound, per cent of control [2]: 62%; kinase still bound, per cent of control (RIPK2 (human)): 41%; kinase still bound, per cent of control (ROCK2 (human)): 100%; kinase still bound, per cent of control (RPS6KA3 KD1 (human)): 22%; kinase still bound, per cent of control (RPS6KA5 KD2 (human)): 76%; kinase still bound, per cent of control (SNRK (human)): 83%; kinase still bound, per cent of control (SRMS (human)): 58%; kinase still bound, per cent of control (SRPK2 (human)): 34%; kinase still bound, per cent of control (SRPK3 (human)): 16%; kinase still bound, per cent of control (STK3 (human)): 1.8%; kinase still bound, per cent of control (STK38L (human)): 100%; kinase still bound, per cent of control (TGFBR2 (human)): 100%; kinase still bound, per cent of control (ULK1 (human)): 92%; kinase still bound, per cent of control (WEE1 (human)): 83%; kinase still bound, per cent of control (YSK4 (human)): 34%
C[C@@H](Oc1cc(-c2cnn(C3CCNCC3)c2)cnc1N)c1c(Cl)ccc(F)c1Cl	24%	100%	100%	100%	68%	95%	1.6%	6.8%	93%	0%	24%	0.15%	42%	73%	82%	86%	100%	100%	26%	93%	kinase still bound, per cent of control [1]: 100%; kinase still bound, per cent of control (PDGFRA (human)): 92%; kinase still bound, per cent of control (RIPK2 (human)): 11%; kinase still bound, per cent of control (ROCK2 (human)): 8%; kinase still bound, per cent of control (RPS6KA3 KD1 (human)): 47%; kinase still bound, per cent of control (RPS6KA5 KD2 (human)): 95%; kinase still bound, per cent of control (SNRK (human)): 100%; kinase still bound, per cent of control (SRMS (human)): 54%; kinase still bound, per cent of control (SRPK2 (human)): 46%; kinase still bound, per cent of control (SRPK3 (human)): 15%; kinase still bound, per cent of control (STK25 (human)): 65%; kinase still bound, per cent of control (STK3 (human)): 0%; kinase still bound, per cent of control (STK38L (human)): 95%; kinase still bound, per cent of control (TGFBR2 (human)): 100%; kinase still bound, per cent of control (ULK1 (human)): 1%; kinase still bound, per cent of control (WEE1 (human)): 100%; kinase still bound, per cent of control (YSK4 (human)): 2.4%
NC(=O)Nc1cc(-c2cccc(F)c2)sc1C(=O)N[C@@H]1CCCNC1	100%	100%	71%	3.8%	0.65%	100%	1.3%	0.2%	13%	0%	0%	0%	10%	28%	38%	51%	43%	0.7%	38%	100%	kinase still bound, per cent of control [3]: 5%; kinase still bound, per cent of control (MET (human)): 3.1%; kinase still bound, per cent of control [2]: 0%; kinase still bound, per cent of control (RIPK2 (human)): 40%; kinase still bound, per cent of control (ROCK2 (human)): 0.2%; kinase still bound, per cent of control (RPS6KA3 KD1 (human)): 0.95%; kinase still bound, per cent of control (RPS6KA5 KD2 (human)): 9%; kinase still bound, per cent of control (SNRK (human)): 2.6%; kinase still bound, per cent of control (SRMS (human)): 0%; kinase still bound, per cent of control (SRPK2 (human)): 4.4%; kinase still bound, per cent of control (SRPK3 (human)): 0.55%; kinase still bound, per cent of control (STK25 (human)): 0%; kinase still bound, per cent of control (STK38L (human)): 0%; kinase still bound, per cent of control (TGFBR2 (human)): 2.4%; kinase still bound, per cent of control (ULK1 (human)): 0%; kinase still bound, per cent of control (WEE1 (human)): 50%; kinase still bound, per cent of control (YSK4 (human)): 0%
